Experiments:
[1] = system: mouse fibroblasts (NIH3T3 cell line); assay: Apoptosis analysis, NIH3T3 fibroblasts; assay type: cell-based
Method: (§1) Murine NIH3T3 fibroblasts and human lung epithelial cells (A549 cells) were purchased from the Bioresource Collection and Research Center (Hsinchu, Taiwan). Cells were cultured in Dulbecco's modified eagle medium (DMEM) containing 10% fetal bovine serum (FBS), 100 μg/mL penicillin, 100 μg/mL streptomycin. Cells were cultured at 37° C. in a humidified atmosphere of 5% CO2 and passaged every 4 to 5 days at 1:4 ratios.
The measurement of apoptotic cells was conducted by flow cytometry (sub-G1) and cell death detection enzyme-bound immunosorbent assay (ELISA) for cytoplasmic histone associated DNA fragments. The amount of formazan dye was quantified by measuring the absorbance at 570 nm using ELISA reader to calculate the optical density (OD) values. Statistical analysis was determined using Student's t-test, with P<0.05 considered significant.
STAT3 cDNA (KIAA1524) was purchased from Addgene Platinum Corporation. After the transient transfection of STAT3, SHP-1, SHP-1(dN1) mutants and SHP-1(61A) mutant in mouse fibroblasts (NIH3T3 cell line) and human lung epithelial cells (A549 cell line), cells were reacted separately with the 1-[4-chloro-3-(trifluoromethyl)phenyl]-3-[3-(4-cyanophenoxy)phenyl]urea compound and subjected to the Western blotting process. Transfection was performed by X-tremeGENE HP Transfection Reagent (Roche, Germany) following the manufacturer's instructions. […]

[2] = system: human lung epithelial cells (A549 cell line); assay: TGF-β1-induced epithelial mesenchymal transition (EMT) in A549 cells; assay type: cell-based
Method: as §1
Whole-cell extracts were obtained via RIPA buffer (Millipore, USA) and protein concentrations were quantified via a BCA protein assay kit (Thermo Fisher Scientific, USA). 20 or 25 μg of protein was added to various percentages of SDS-sodium dodecyl sulfate-acrylamide gel and blotted onto a polyvinylidene fluoride (PVDF) membrane. The membrane was then reacted with a primary antibody; after extensive washing, the membrane was reacted with a […] containing a second antibody. Proteins were detected by Immobilon Western Chemiluminescent HRP substrate (Millipore, USA) or ECL detection system (UVP Corporation, USA).
Antibodies for immunoblotting techniques such as anti-E-cadherin, anti-Fibronectin, anti-N-cadherin were purchased from Abcam (UK). Other antibodies such as anti-SHP-1, anti-phosphorylated STAT3(Tyr705), anti-STAT3α-smooth muscle actin (α-SMA) and anti-caspase-9 were purchased from Cell Signaling Corporation ([…], United States).
Smart-pool siRNA, including control (sc-37007) siRNA, siRNA anti-SHP-1, and STAT3, were purchased from Santa Cruz Biotechnology (California, USA).

[3] = system: CCl4-induced hepatic fibrosis in mice; assay: CCl4-induced hepatic fibrosis mice regression model; assay type: in vivo, male C57BL/6J mice; conditions: 10 mg/kg for 4 weeks without CCl4 after 8 weeks CCl4 induction
Description: In male C57BL/6J mice, liver fibrosis was induced by carbon tetrachloride (CCl4). The mice were given peritoneal injection of carbon tetrachloride for 4 or 8 weeks every two weeks.
(§2) The mice liver samples were stored in 10% formaldehyde, dehydrated with gradient alcohol, embedded in paraffin blocks, sectioned to a thickness of 3 μm, placed on glass slides, and stained with Picrosirius Red Stain kit (ScyTek, USA), following the manufacturer's instructions. The severity of liver fibrosis was graded according to the Ishak fibrosis score. Quantitative collagen-positive area (qCPA) was determined by densitometry via ImageJ software. Hepatic hydroxyproline concentrations were measured by the hydroxyproline assay kit (Biovision, USA), following the manufacturer's instructions Immunohistochemistry was performed by the Leica BOND-MAX automatic chromatograph (Leica Biosystems, Germany), following the manufacturer's instructions.

[4] = system: BDL-induced cholestasis fibrosis in mice; assay: Bile duct ligation (BDL) fibrosis mice treatment model; assay type: in vivo, Balb/C mice; conditions: 10 mg/kg from day 8 until sacrifice on day 14 following BDL; FIG. 13C, 13D
Description: In the bile duct ligation (BDL) mouse model, the common bile duct of Balb/C mice was double-ligated and excised. Mice were fed daily with vehicle or 1-[4-chloro-3-(trifluoromethyl)phenyl]-3-[3-(4-cyanophenoxy)phenyl]urea on day 1 or day 8 until they were sacrificed on day 14.
as §2

HSC-T6 cells = assay: Apoptosis (Annexin V / propidium iodide flow cytometry), HSC-T6 cells; assay type: cell-based, rat
Method: Rat immortal hepatic stellate cell line HSC-T6 and LX2 human hepatic stellate cell line were provided by Professor Scott Friedman of Mount Sinai Hospital in New York, USA. The primary mouse HSCs were obtained via the way: after intubating the hepatic portal vein of the mouse, the cells were perfused with Leffert's and ethylene glycol bis-aminoethyl ether tetraacetic acid (EGTA) buffer in situ, and then collagenase was injected to digest the liver tissue, and then the primary mouse HSCs were isolated by Histodnz gradient. […]
HSC-T6 cells, LX2 cells or primary mouse HSCs cells were seeded in 96-well plates (5,000 cells/well) for 24 hours, and the cells were treated with various concentrations of 1-[4-chloro-3-(trifluoromethyl)phenyl]-3-[3-(4-cyanophenoxy)phenyl]urea or Sorafenib for 24 or 48 hours. The effect of each reagent on the cell viability and the cell were evaluated by CellTiter 96 AQueous one solution of 3-(4,5-dimethylthiazol-2-yl)-5-(3-carboxymethoxyphenyl)-2-(4-sulfophenyl)-2H-tetra zolium, an inner, MTS (Promega, USA). […] The proportion of apoptotic cells was mixed the early (Annexin V+/PI−) and the late (Annexin V+/PI+) apoptotic cells measured by BD FACS Verse flow cytometry (BD, USA). […]

## N#Cc1ccc(Oc2cccc(NC(=O)Nc3ccc(Cl)c(C(F)(F)F)c3)c2)cc1 [1-[4-chloro-3-(trifluoromethyl)phenyl]-3-[3-(4-cyanophenoxy)phenyl]urea]
[1]; NIH3T3, SHP-1 siRNA, FIG. 7D
  compound-induced apoptosis after SHP-1 knockout: offset by SHP-1 knockout
[1]; NIH3T3, FIG. 7C
  apoptosis of fibrotic cells: induced apoptosis
[2]; A549, FIG. 9B
  effects of the compound (p-STAT3, EMT marker, migration and invasion) after SHP-1 knock out with siRNA: offset the effects
[2]; A549, FIG. 9C
  effects of the compound (EMT marker, migration and invasion) after STAT3 knock out: offset the effects
[2]; A549 exposed to TGF-β1, FIG. 8B
  TGF-β1-induced EMT (EMT marker profile): reversed TGF-β1-induced EMT in a dose-dependent manner
[2]; A549 exposed to TGF-β1, FIGS. 8C and 8D
  migration and invasion of cells: reduced
[3]; FIG. 12G
  qCPA (quantitative collagen-positive area): significantly decreased
[3]; FIG. 12H
  Ishak fibrosis score: significantly decreased
[4]
  quantitative collagen-positive area (qCPA): significantly reduced
HSC-T6 cells; HSC-T6, 24 hours, compared with sorafenib, FIG. 14B
  HSC apoptosis: significantly increased HSC apoptosis in a dose-dependent manner
HSC-T6 cells; rat STAT3 stable overexpression clone, FIG. 15C
  compound-induced apoptosis in STAT3-overexpressing HSCs: significantly abolished
